In general, GI50 refers to the concentration at which growth is held to half of that of the control.

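Assay format: 96-well plates, 48-hour exposure. GI50: concentration for 50% inhibition of growth.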 Activity calls are given as the source filed them. Cut-off read from the data, not from the text of the source: active = GI50 up to about 1.1 µM and inactive = higher.

Holding throughout (test): DTP human tumour cell line panel, 48 h
Assay [1] relates to LOX IMVI.
Assay [2] deals with COLO 205.
In assay [3] the test system is HOP-62.
Assay [4] has as its system SNB-78.
Assay [5] relates to ACHN.
Assay [6] has as its system DLD-1.
The test system of assay [7] is OVCAR-5.
The test system of assay [8] is KM12.
Assay [9] has as its system UACC-62.
Assay [10] has as its system K562.
The test system of assay [11] is SF-539.
For assay [12], the system named is NCI-H522.
The subject of assay [13] is OVCAR-3.
Assay [14] relates to HOP-92.
Assay [15] has as its system SN12C.
Assay [16] concerns MDA-N.
The test system of assay [17] is HCC 2998.
In assay [18] the test system is PC-3.

As to `CN(C)CCn1c2c3ccccc3ccc2c2oc(=O)c3ccccc3c21`, the GI50 in assay [1] was 4.23 µM (inactive); in assay [2], 4.17 µM (inactive); in assay [3] it was 13.2 µM (inactive); in assay [4] it was 19.7 µM (inactive); in [5] it was 5.24 µM (inactive); in assay [6], 5.11 µM (inactive). Moreover, the GI50 in assay [7] is 19.5 µM (inactive); in assay [8], 6.71 µM (inactive); in assay [9] it was 7.35 µM (inactive); in [10] it was 4.48 µM (inactive); in [11], 2.5 µM (inactive); in assay [12] it was 9.46 µM (inactive). Besides, the GI50 in assay [13] was 4.4 µM (inactive); in assay [14] it was 5.58 µM (inactive).
For `Clc1nc2c(C#Cc3ccccc3)ncnc2n1C1CCCCO1` (stereo not given), the GI50 in assay [15] was 10.4 µM (inactive); in [1], 12.6 µM (inactive); in assay [2] it was 15.4 µM (inactive); in [16], 8.47 µM (inactive); in assay [3] it was 31.2 µM (inactive); in assay [5], 16.1 µM (inactive). Also, the GI50 in [7] was 12.6 µM (inactive); in assay [17], 14.7 µM (inactive); in assay [8], 14 µM (inactive); in assay [18] it was 12.2 µM (inactive); in [9], 13.4 µM (inactive); in assay [10], 30.3 µM (inactive). Also, the GI50 in assay [11] is 14.3 µM (inactive); in [12] it was 7.94 µM (inactive); in [13], 14.8 µM (inactive); in [14], 14.8 µM (inactive).
For the compound `N=C(N)NS(=O)(=O)c1ccc(NC(=O)c2c3ccccc3nc3ccccc23)cc1`, the GI50 in assay [15], in [1], in assay [2], in [16], in [3] and in [5] was > 100 µM (inactive) throughout. For the same compound, the GI50 in [7] was > 100 µM (inactive); in assay [17] it was > 100 µM (inactive); in [8], > 100 µM (inactive); in assay [18] it was > 100 µM (inactive); in assay [9], > 100 µM (inactive); in assay [10] it was > 10 µM (inactive). For the same compound, the GI50 in assay [11], in assay [12], in assay [13] and in assay [14] was > 100 µM (inactive) in each case.
`CC(C)(CO)CNc1cc(Cl)nc(N)n1`: the GI50 in assay [15], in assay [1], in assay [2], in assay [16], in [3] and in assay [5] was > 100 µM (inactive) in each case. Further, the GI50 in assay [7], in assay [17], in [8], in assay [18], in assay [9] and in [10] was > 100 µM (inactive) throughout. Further, the GI50 in assay [11], in assay [12], in assay [13] and in [14] was > 100 µM (inactive) each time.
For `Brc1ccc(-c2[nH]c3ccccc3c2/N=N\c2ccccc2)cc1`, the GI50 is 17.3 µM (inactive) in [15]; 30.8 µM (inactive) in assay [1]; 15 µM (inactive) in [2]; 16.6 µM (inactive) in assay [16]; 18.1 µM (inactive) in assay [3]; 20.6 µM (inactive) in assay [5]. For the same compound, the GI50 was 18.7 µM (inactive) in assay [7]; 16.8 µM (inactive) in assay [17]; 16.5 µM (inactive) in [8]; 16.1 µM (inactive) in assay [18]; 19.8 µM (inactive) in [9]; 23.2 µM (inactive) in assay [10]. In addition, the GI50 in assay [11] is 17.4 µM (inactive); in [12], 17.6 µM (inactive); in assay [13] it was 12.3 µM (inactive); in assay [14], 18.2 µM (inactive).
Turning to `Cc1nc2ccc(S(=O)(=O)Nc3ccccc3)cc2c(=O)n1NC(=O)CNc1ccccc1`, the GI50 was > 100 µM (inactive) in assay [15]; > 100 µM (inactive) in [1]; > 100 µM (inactive) in assay [2]; > 100 µM (inactive) in [16]; 73.5 µM (inactive) in assay [3]; > 100 µM (inactive) in [5]. The GI50 in assay [7], in assay [17], in assay [8], in assay [18], in assay [9] and in assay [10] was > 100 µM (inactive) throughout. The GI50 in [11], in assay [12], in [13] and in assay [14] was > 100 µM (inactive) each time.
On to `CC(C)(C)OC(=O)NC(Cc1ccc(OC(C)(C)C)cc1)C(=O)N[C@H]1CCC[C@H]1C(=O)NC(Cc1ccccc1)C(=O)N1CCCC1C(N)=O` (stereo not given in full), for which the GI50 in assay [15], in assay [1], in assay [2], in assay [16], in assay [3] and in assay [5] was > 100 µM (inactive) in each case. Besides, the GI50 in assay [7], in assay [17], in assay [8], in assay [18], in assay [9] and in assay [10] was > 100 µM (inactive) throughout. The GI50 in assay [11], in assay [12], in assay [13] and in assay [14] was > 100 µM (inactive) throughout.
Regarding `CC1CC[C@@]2(OC1)OC1C[C@H]3[C@@H]4CC[C@H]5CC(OC6OC(CO)C(O)C(OC7OC(CO)C(OC8OC(CO)C(O)C(OC9OC(CO)C(O)C(O)C9O)C8OC8OC(CO)C(O)C(O)C8O)C(O)C7O)C6O)[C@H](O)CC5(C)[C@H]4CCC3(C)C1[C@@H]2C` (stereo not given in full), the GI50 was 2.49 µM (inactive) in assay [15]; 2.29 µM (inactive) in [1]; 1.95 µM (inactive) in assay [2]; 6.59 µM (inactive) in assay [16]; 2.28 µM (inactive) in [3]; 1.9 µM (inactive) in assay [5]. Also, the GI50 in assay [7] is 5.33 µM (inactive); in assay [17], 1.43 µM (inactive); in assay [8], 4.79 µM (inactive); in [18], 1.29 µM (inactive); in assay [9], 8.69 µM (inactive); in assay [10], 3.37 µM (inactive). In addition, the GI50 in assay [11] was 1.87 µM (inactive); in [12], 1.66 µM (inactive); in [13] it was 0.9 µM (active); in [14], 4.88 µM (inactive).
As for `COc1ccc2[nH]c3c(c2c1)CCc1ccccc1-3`, the GI50 is > 100 µM (inactive) in [15]; 78.9 µM (inactive) in assay [1]; > 100 µM (inactive) in [2]; > 100 µM (inactive) in assay [16]; 35.2 µM (inactive) in assay [3]; > 100 µM (inactive) in [5]. For the same compound, the GI50 in [7] was > 100 µM (inactive); in [17], 64.3 µM (inactive); in [8] it was 32.4 µM (inactive); in assay [18], 52.8 µM (inactive); in [9], > 100 µM (inactive); in assay [10], > 100 µM (inactive). Further, the GI50 in assay [11] is 16.7 µM (inactive); in [12], 26.7 µM (inactive); in [13], > 100 µM (inactive); in [14], 51.2 µM (inactive).
In the case of `c1ccc2c(c1)CCc1c-2n(CCN2CCOCC2)c2ccccc12`, the GI50 was > 100 µM (inactive) in [15]; > 100 µM (inactive) in assay [1]; 37.4 µM (inactive) in [2]; > 100 µM (inactive) in [16]; 68.4 µM (inactive) in assay [3]; > 100 µM (inactive) in assay [5]. In addition, the GI50 in assay [7] is > 100 µM (inactive); in assay [17], 14.3 µM (inactive); in [8], 13.5 µM (inactive); in [18], 19.1 µM (inactive); in assay [9] it was > 100 µM (inactive); in assay [10] it was 2.14 µM (inactive). The GI50 in assay [11] is 37.9 µM (inactive); in assay [12] it was 13.3 µM (inactive); in [13], > 100 µM (inactive); in [14], 17.8 µM (inactive).
Turning to `c1ccc2c[n+](Cc3ccnc4ccccc34)ccc2c1`, the GI50 was > 100 µM (inactive) in assay [15]; > 100 µM (inactive) in assay [1]; 67.1 µM (inactive) in assay [2]; > 100 µM (inactive) in assay [16]; > 100 µM (inactive) in [3]; > 100 µM (inactive) in [5]. For the same compound, the GI50 in assay [7], in [17], in [8], in assay [18], in assay [9] and in assay [10] was > 100 µM (inactive) each time. The GI50 in [11] was > 100 µM (inactive); in assay [12], > 100 µM (inactive); in assay [13], 67 µM (inactive); in assay [14], 97.7 µM (inactive).
Consider `O=C(Nc1cccc(C(F)(F)F)c1)c1cc(Br)cc(Br)c1O` [FLUOROSALAN], for which the GI50 is 3.59 µM (inactive) in assay [15]; 2.06 µM (inactive) in [1]; 3.18 µM (inactive) in assay [2]; 3.69 µM (inactive) in [16]; 5.22 µM (inactive) in assay [3]; 3.06 µM (inactive) in assay [5]. Moreover, the GI50 in assay [7] is 4.76 µM (inactive); in [17] it was 3.03 µM (inactive); in assay [8], 3.28 µM (inactive); in [18], 2.32 µM (inactive); in [9] it was 3.56 µM (inactive); in [10], 2.08 µM (inactive). Further, the GI50 was 3.55 µM (inactive) in assay [11], 3 µM (inactive) in assay [12], 2.24 µM (inactive) in assay [13] and 2.27 µM (inactive) in [14].
